Common to all, as to test: DTP human tumour cell line panel, 48 h
The test system of test [1] is NCI-H522.
Test [2] has as its system SW-620.
Test [3] relates to OVCAR-8.
In test [4] the test system is IGROV-1.
Test [5] has as its system UO-31.
Test [6] relates to EKVX.
Test [7] concerns SF-539.
Test [8] deals with 786-0.
In test [9] the test system is SNB-19.
In test [10] the test system is SK-MEL-2.
In test [11] the test system is SN12C.
For test [12], the system named is A498.
Test [13] concerns HCT-116.
The test system of test [14] is OVCAR-4.
Test [15] concerns UACC-62.
Test [16] relates to TK-10.
The subject of test [17] is MDA-MB-435.
For test [18], the system named is MCF7.
The subject of test [19] is Hs-578T.
Test [20] deals with MDA-N.

SMILES strings stand for the structures.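 Protocol summary: plate cells (96-well), add compound at 5 concentrations, incubate 48 h, interpolate endpoints linearly. At the GI50, growth is halved.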 The source made the active and inactive calls. No stated cut-off is given here; in the data, active = GI50 up to about 1.1 µM and inactive = higher.

By GI50 is commonly meant the concentration that inhibits growth by half. Take `c1coc(CNc2[nH]cnc3nncc2-3)c1`: the GI50 is > 100 µM (inactive) in [1]; > 100 µM (inactive) in [2]; > 100 µM (inactive) in test [3]; > 100 µM (inactive) in test [4]; 70.3 µM (inactive) in test [5]; > 100 µM (inactive) in [6]. For the same molecule, the GI50 in test [7], in test [8], in test [9], in [10], in [11] and in [12] was > 100 µM (inactive) in each case. Further, the GI50 in [13], in test [14], in [15] and in [16] was > 100 µM (inactive) throughout.

Regarding `CCOC(=O)c1c(OCC)[nH]c(=O)c(C(c2cccs2)c2c(O)c(C(=O)OCC)c(OCC)[nH]c2=O)c1O`, the GI50 in test [1] is 13.8 µM (inactive); in test [2], 12.1 µM (inactive); in test [3], 12.6 µM (inactive); in test [4], 13.9 µM (inactive); in [17], 14.5 µM (inactive); in test [5], 10.9 µM (inactive). The GI50 was 14.9 µM (inactive) in test [18]; 11.5 µM (inactive) in test [6]; 6.4 µM (inactive) in [7]; 12.1 µM (inactive) in test [8]; 11.4 µM (inactive) in test [9]; 12.8 µM (inactive) in [10]. The GI50 in test [19] was 21 µM (inactive); in test [11], 15.4 µM (inactive); in test [12], 2.67 µM (inactive); in [13], 17.5 µM (inactive); in test [14], 17.6 µM (inactive); in test [15], 14.2 µM (inactive). Further, the GI50 in test [16] is 25.4 µM (inactive).

For the molecule `COc1cc(/C=C2\N=C(c3ccccc3)N(c3nc4c(Cl)cc(Cl)cc4s3)C2=O)ccc1O`, the GI50 was 32.4 µM (inactive) in test [2]; 31.8 µM (inactive) in test [3]; 29.1 µM (inactive) in test [4]; 27.5 µM (inactive) in test [17]; 27 µM (inactive) in [5]; 28.1 µM (inactive) in [18]. For the same molecule, the GI50 was 17.9 µM (inactive) in test [6]; 41.6 µM (inactive) in test [7]; 35.9 µM (inactive) in test [8]; 36.6 µM (inactive) in [9]; 23.4 µM (inactive) in [10]; 18.2 µM (inactive) in [19]. In addition, the GI50 is 22.2 µM (inactive) in test [11]; 17.8 µM (inactive) in test [12]; 24 µM (inactive) in test [13]; 29.2 µM (inactive) in test [14]; 25.8 µM (inactive) in test [15]; 39.9 µM (inactive) in test [16].

With `C/C(=N\Nc1nc2ccccc2n1C)c1cnccn1`, the GI50 in test [1] is 0.129 µM (active); in test [2], 0.0418 µM (active); in test [3], 0.0615 µM (active); in [4] it was 0.0435 µM (active); in test [17] it was 0.55 µM (active); in test [5], 0.0407 µM (active). In addition, the concentration for 50% growth inhibition (GI50) in test [18] is 0.0246 µM (active); in [6] it was 0.0424 µM (active); in test [7] it was 0.692 µM (active); in [8], 0.0671 µM (active); in test [9], 2.73 µM (inactive); in test [10], 0.839 µM (active). In addition, the GI50 is 0.0395 µM (active) in test [11]; 0.684 µM (active) in test [12]; 0.0265 µM (active) in test [13]; 0.0504 µM (active) in test [14]; 0.753 µM (active) in [20]; 0.366 µM (active) in [15]. In [16], the GI50 was 0.0703 µM (active).

`CS/C(N)=N/c1cccc2ccccc12`: the GI50 in test [1], in [2], in test [3], in test [4], in test [17] and in test [5] was > 10 µM (inactive) throughout. The GI50 in test [18], in [6], in test [7], in test [8], in test [9] and in [10] was > 10 µM (inactive) each time. Besides, the GI50 in test [11], in test [12], in test [13], in test [14], in [20] and in [15] was > 10 µM (inactive) in each case. Further, the GI50 in [16] was > 10 µM (inactive).

Take `CC(C)(C)OP(=O)(OC(C)(C)C)C(O)c1ccc(/C=C(\C#N)C(N)=O)cc1` (stereo not drawn): the GI50 in test [1], in [2], in test [3], in [4], in test [5] and in [6] was > 100 µM (inactive) throughout. Moreover, the GI50 in test [7], in [8], in test [9], in test [10], in [11] and in test [12] was > 100 µM (inactive) throughout. For the same molecule, the GI50 in [13], in test [14], in test [15] and in [16] was > 100 µM (inactive) in each case.

On to `N#C/C(=C\c1cccc(Br)c1)c1nc2ccccc2c(=O)[nH]1`, for which the GI50 in [1] was 37.9 µM (inactive); in test [2] it was > 100 µM (inactive); in test [3], > 100 µM (inactive); in test [4] it was > 100 µM (inactive); in test [17], > 100 µM (inactive); in test [5] it was > 100 µM (inactive). Moreover, the GI50 in [18] was > 100 µM (inactive); in [6], > 100 µM (inactive); in test [7], 47.9 µM (inactive); in [8], 49.4 µM (inactive); in [9], 43.7 µM (inactive); in test [10] it was > 100 µM (inactive). Also, the GI50 in [11] was > 100 µM (inactive); in test [13], > 100 µM (inactive); in test [14] it was > 100 µM (inactive); in [20], > 100 µM (inactive); in test [15], 76.2 µM (inactive); in test [16], 42.1 µM (inactive).

On to `O=C1C=C(Br)C(=O)C(Br)=C1`, for which the GI50 in test [1] is 67.5 µM (inactive); in [2] it was 59.7 µM (inactive); in test [3], > 100 µM (inactive); in test [4] it was > 100 µM (inactive); in test [5], > 100 µM (inactive); in [6], > 100 µM (inactive). Also, the GI50 was > 100 µM (inactive) in test [7]; > 100 µM (inactive) in test [8]; > 100 µM (inactive) in test [9]; > 100 µM (inactive) in test [10]; > 59.6 µM (inactive) in test [11]; > 100 µM (inactive) in [12]. Also, the GI50 is > 84.9 µM (inactive) in [13], > 100 µM (inactive) in [14], > 100 µM (inactive) in test [15] and > 100 µM (inactive) in test [16].

Take `COC(=O)[C@@]12CCCC(=O)[C@@H]1[C@H]1CCCC[C@H]12`: the GI50 in test [1], in test [2], in test [3], in test [4], in [17] and in test [5] was > 100 µM (inactive) each time. The GI50 in test [18], in test [6], in test [7], in [8], in test [9] and in test [10] was > 100 µM (inactive) throughout. The GI50 in [11], in test [13], in test [14], in test [20], in test [15] and in test [16] was > 100 µM (inactive) each time.

Take `COC1CC2CCC(C)[C@](O)(O2)C(=O)C(=O)N2CCCCC2C(=O)OC(C(C)CC2CCC(O)C(OC)C2)CC(=O)C(C)C=C(C)C(OC(=O)CN(C)C)C(OC)C(=O)C(C)CC(C)/C=C/C=C/C=C\1C` (stereo partly drawn): the GI50 was 3.94 µM (inactive) in test [1]; 0.403 µM (active) in test [3]; 2.69 µM (inactive) in test [17]; < 0.01 µM (active) in test [5]; < 0.01 µM (active) in test [18]; < 0.01 µM (active) in [6]. Besides, the concentration for 50% growth inhibition (GI50) in test [7] was < 0.01 µM (active); in test [8] it was 10.8 µM (inactive); in test [9] it was < 0.01 µM (active); in test [10] it was < 0.0419 µM (active); in [19], < 0.01 µM (active); in [12], < 0.01 µM (active). Also, the GI50 in test [13] is 5.87 µM (inactive); in test [14], < 0.01 µM (active); in [15] it was < 0.01 µM (active); in test [16], 11.6 µM (inactive).

In the case of `COC1CC(n2ccc(=O)[nH]c2=O)OC1CO` (stereo not drawn), the GI50 in [1], in test [2], in test [3], in test [4], in test [17] and in [5] was > 100 µM (inactive) in each case. Moreover, the GI50 is < 0.01 µM (active) in test [18]; > 100 µM (inactive) in test [6]; > 100 µM (inactive) in test [7]; > 100 µM (inactive) in test [8]; > 100 µM (inactive) in test [9]; > 100 µM (inactive) in test [10]. Further, the GI50 in [11], in test [12], in [13], in [14], in test [20] and in test [15] was > 100 µM (inactive) throughout.
